From the NIST ThermoML archive (doi:10.1021/je400184t)

Test: excess molar enthalpy (molar enthalpy of mixing); xn = mol fraction of the nth substance listed
Details: 298.15 K, 101 kPa, Liquid, Calvet calorimetry

NCCO [2-aminoethan-1-ol] + c1ccncc1
Details | excess molar enthalpy [kcal/mol]
x2 = 0.00998 | 0.00765
x2 = 0.0187 | 0.0143
x2 = 0.02728 | 0.021
x2 = 0.0357 | 0.0272
x2 = 0.04398 | 0.0335
x2 = 0.05212 | 0.0394
x2 = 0.06012 | 0.0452
x2 = 0.06798 | 0.0509
x2 = 0.07572 | 0.0562
x2 = 0.08333 | 0.0614
x2 = 0.09081 | 0.0667
x2 = 0.09818 | 0.0715
x2 = 0.1054 | 0.0762
x2 = 0.1125 | 0.0808
x2 = 0.1196 | 0.0851
x2 = 0.1265 | 0.0894
x2 = 0.1333 | 0.093
x2 = 0.14 | 0.09656
x2 = 0.1466 | 0.1001
x2 = 0.153 | 0.1035
x2 = 0.1594 | 0.1066
x2 = 0.1657 | 0.1097
x2 = 0.1719 | 0.113
x2 = 0.1782 | 0.115
x2 = 0.1845 | 0.118
x2 = 0.1907 | 0.1212
x2 = 0.197 | 0.124
x2 = 0.2032 | 0.1267
x2 = 0.2095 | 0.1293
x2 = 0.2157 | 0.1319
x2 = 0.222 | 0.1343
x2 = 0.2282 | 0.137
x2 = 0.2345 | 0.1393
x2 = 0.2407 | 0.1417
x2 = 0.247 | 0.1439
x2 = 0.2532 | 0.1463
x2 = 0.2595 | 0.1484
x2 = 0.2657 | 0.1508
x2 = 0.272 | 0.153
x2 = 0.2782 | 0.1551
x2 = 0.2845 | 0.157
x2 = 0.2907 | 0.1592
x2 = 0.297 | 0.1611
x2 = 0.3032 | 0.163
x2 = 0.3095 | 0.1649
x2 = 0.3157 | 0.1668
x2 = 0.322 | 0.1687
x2 = 0.3282 | 0.1704
x2 = 0.3345 | 0.1723
x2 = 0.3407 | 0.174
x2 = 0.347 | 0.1757
x2 = 0.3532 | 0.1773
x2 = 0.3595 | 0.179
x2 = 0.3621 | 0.1797
x2 = 0.3652 | 0.1804
x2 = 0.3684 | 0.1812
x2 = 0.3716 | 0.1821
x2 = 0.3748 | 0.1828
x2 = 0.3781 | 0.1836
x2 = 0.3815 | 0.1845
x2 = 0.385 | 0.1852
x2 = 0.3885 | 0.1859
x2 = 0.3921 | 0.1867
x2 = 0.3957 | 0.1869
x2 = 0.3994 | 0.1879
x2 = 0.4032 | 0.1888
x2 = 0.407 | 0.1898
x2 = 0.4109 | 0.1905
x2 = 0.4149 | 0.1914
x2 = 0.419 | 0.1924
x2 = 0.4232 | 0.1934
x2 = 0.4274 | 0.1943
x2 = 0.4317 | 0.195
x2 = 0.4361 | 0.196
x2 = 0.4406 | 0.1969
x2 = 0.4452 | 0.1977
x2 = 0.4499 | 0.1986
x2 = 0.4547 | 0.1993
x2 = 0.4596 | 0.2003
x2 = 0.4646 | 0.201
x2 = 0.4698 | 0.202
x2 = 0.475 | 0.2027
x2 = 0.4803 | 0.2034
x2 = 0.4858 | 0.2043
x2 = 0.4914 | 0.2051
x2 = 0.4971 | 0.2055
x2 = 0.503 | 0.2063
x2 = 0.509 | 0.207
x2 = 0.5151 | 0.2075
x2 = 0.5214 | 0.2079
x2 = 0.5219 | 0.2082
x2 = 0.5284 | 0.2087
x2 = 0.535 | 0.2091
x2 = 0.5418 | 0.2096
x2 = 0.5488 | 0.2098
x2 = 0.5559 | 0.2103
x2 = 0.5633 | 0.2103
x2 = 0.5708 | 0.2106
x2 = 0.5786 | 0.2106
x2 = 0.5865 | 0.2106
x2 = 0.5947 | 0.2106
x2 = 0.6031 | 0.2103
x2 = 0.6117 | 0.2101
x2 = 0.6206 | 0.2096
x2 = 0.6298 | 0.2089
x2 = 0.6392 | 0.2082
x2 = 0.649 | 0.2072
x2 = 0.659 | 0.206
x2 = 0.6693 | 0.2046
x2 = 0.68 | 0.2029
x2 = 0.691 | 0.201
x2 = 0.7024 | 0.1989
x2 = 0.7141 | 0.1965
x2 = 0.7263 | 0.1934
x2 = 0.7389 | 0.1902
x2 = 0.7519 | 0.1862
x2 = 0.7654 | 0.1819
x2 = 0.7793 | 0.1766
x2 = 0.7938 | 0.1709
x2 = 0.8089 | 0.1642
x2 = 0.8245 | 0.1568
x2 = 0.8408 | 0.1482
x2 = 0.8577 | 0.1377
x2 = 0.8753 | 0.1264
x2 = 0.8936 | 0.113
x2 = 0.9127 | 0.09728
x2 = 0.9327 | 0.0791
x2 = 0.9535 | 0.0574
x2 = 0.9753 | 0.0323
x2 = 0.9981 | 0.0012

Cc1ccccc1 [toluene] + CCCCCCC
Details | excess molar enthalpy [kcal/mol]
x2 = 0.00901 | 0.0055
x2 = 0.02172 | 0.0136
x2 = 0.04198 | 0.0253
x2 = 0.06142 | 0.0359
x2 = 0.08009 | 0.0457
x2 = 0.09803 | 0.054
x2 = 0.1153 | 0.0621
x2 = 0.1319 | 0.0691
x2 = 0.1479 | 0.0758
x2 = 0.1633 | 0.0815
x2 = 0.1782 | 0.087
x2 = 0.1925 | 0.0918
x2 = 0.2064 | 0.09608
x2 = 0.2198 | 0.0999
x2 = 0.2327 | 0.1035
x2 = 0.2452 | 0.1071
x2 = 0.2574 | 0.1102
x2 = 0.2691 | 0.113
x2 = 0.2805 | 0.115
x2 = 0.2915 | 0.118
x2 = 0.3022 | 0.1197
x2 = 0.3125 | 0.1214
x2 = 0.3226 | 0.1233
x2 = 0.3324 | 0.1248
x2 = 0.3419 | 0.126
x2 = 0.3511 | 0.1272
x2 = 0.3601 | 0.1281
x2 = 0.3688 | 0.1291
x2 = 0.3773 | 0.13
x2 = 0.3856 | 0.1307
x2 = 0.3883 | 0.131
x2 = 0.3909 | 0.131
x2 = 0.3935 | 0.1312
x2 = 0.3961 | 0.1315
x2 = 0.3987 | 0.1317
x2 = 0.4012 | 0.1317
x2 = 0.4038 | 0.1319
x2 = 0.4063 | 0.1319
x2 = 0.4088 | 0.1322
x2 = 0.4112 | 0.1324
x2 = 0.4137 | 0.1324
x2 = 0.4161 | 0.1324
x2 = 0.4185 | 0.1326
x2 = 0.4209 | 0.1326
x2 = 0.4232 | 0.1329
x2 = 0.4256 | 0.1329
x2 = 0.4279 | 0.1329
x2 = 0.4302 | 0.1331
x2 = 0.4325 | 0.1331
x2 = 0.4348 | 0.1331
x2 = 0.4382 | 0.1331
x2 = 0.4415 | 0.1334
x2 = 0.4449 | 0.1334
x2 = 0.4481 | 0.1334
x2 = 0.4514 | 0.1334
x2 = 0.4546 | 0.1334
x2 = 0.4578 | 0.1334
x2 = 0.4609 | 0.1334
x2 = 0.464 | 0.1334
x2 = 0.4671 | 0.1334
x2 = 0.4701 | 0.1331
x2 = 0.4731 | 0.1331
x2 = 0.476 | 0.1331
x2 = 0.479 | 0.1331
x2 = 0.4819 | 0.1329
x2 = 0.4847 | 0.1329
x2 = 0.4875 | 0.1329
x2 = 0.4903 | 0.1326
x2 = 0.4931 | 0.1326
x2 = 0.4959 | 0.1324
x2 = 0.4995 | 0.1322
x2 = 0.503 | 0.1322
x2 = 0.5066 | 0.1319
x2 = 0.51 | 0.1319
x2 = 0.5134 | 0.1317
x2 = 0.5168 | 0.1315
x2 = 0.5202 | 0.1312
x2 = 0.5234 | 0.131
x2 = 0.5267 | 0.1307
x2 = 0.5299 | 0.1305
x2 = 0.533 | 0.1303
x2 = 0.5361 | 0.13
x2 = 0.5392 | 0.1298
x2 = 0.5422 | 0.1295
x2 = 0.5452 | 0.1293
x2 = 0.5482 | 0.1291
x2 = 0.5511 | 0.1288
x2 = 0.5539 | 0.1286
x2 = 0.5568 | 0.1283
x2 = 0.5589 | 0.1281
x2 = 0.5609 | 0.1279
x2 = 0.563 | 0.1276
x2 = 0.565 | 0.1274
x2 = 0.5671 | 0.1272
x2 = 0.5691 | 0.1269
x2 = 0.571 | 0.1267
x2 = 0.573 | 0.1264
x2 = 0.5749 | 0.1262
x2 = 0.5769 | 0.126
x2 = 0.5788 | 0.126
x2 = 0.5807 | 0.1257
x2 = 0.5826 | 0.1255
x2 = 0.5844 | 0.1252
x2 = 0.5863 | 0.125
x2 = 0.5881 | 0.1248
x2 = 0.5899 | 0.1245
x2 = 0.5917 | 0.1243
x2 = 0.5935 | 0.124
x2 = 0.5952 | 0.1238
x2 = 0.597 | 0.1236
x2 = 0.5987 | 0.1233
x2 = 0.6004 | 0.1231
x2 = 0.6021 | 0.1228
x2 = 0.6038 | 0.1226
x2 = 0.6055 | 0.1224
x2 = 0.6071 | 0.1221
x2 = 0.6088 | 0.1219
x2 = 0.6148 | 0.1212
x2 = 0.6209 | 0.12
x2 = 0.6271 | 0.119
x2 = 0.6335 | 0.118
x2 = 0.64 | 0.117
x2 = 0.6466 | 0.116
x2 = 0.6534 | 0.114
x2 = 0.6603 | 0.113
x2 = 0.6673 | 0.112
x2 = 0.6745 | 0.1102
x2 = 0.6819 | 0.1085
x2 = 0.6894 | 0.1068
x2 = 0.6971 | 0.1052
x2 = 0.705 | 0.1035
x2 = 0.713 | 0.1013
x2 = 0.7212 | 0.09943
x2 = 0.7297 | 0.09751
x2 = 0.7383 | 0.0951
x2 = 0.7471 | 0.0927
x2 = 0.7562 | 0.0903
x2 = 0.7623 | 0.0887
x2 = 0.7685 | 0.087
x2 = 0.7748 | 0.0851
x2 = 0.7812 | 0.0832
x2 = 0.7877 | 0.0813
x2 = 0.7943 | 0.0789
x2 = 0.801 | 0.077
x2 = 0.8079 | 0.0746
x2 = 0.8148 | 0.0724
x2 = 0.8219 | 0.0703
x2 = 0.8291 | 0.0679
x2 = 0.8365 | 0.0655
x2 = 0.8439 | 0.0629
x2 = 0.8515 | 0.0602
x2 = 0.8592 | 0.0574
x2 = 0.8671 | 0.0545
x2 = 0.8752 | 0.0516
x2 = 0.8833 | 0.0485
x2 = 0.8917 | 0.0452
x2 = 0.9002 | 0.0418
x2 = 0.9088 | 0.0385
x2 = 0.9176 | 0.0351
x2 = 0.9266 | 0.0315
x2 = 0.9358 | 0.0277
x2 = 0.9434 | 0.0246
x2 = 0.9511 | 0.0215
x2 = 0.9589 | 0.0184
x2 = 0.9668 | 0.0151
x2 = 0.9749 | 0.0115
x2 = 0.9831 | 0.00789
x2 = 0.9915 | 0.00382
